{"source": "patent US10738028B2", "about": "“Spiro three-membered ring, spiro five-membered ring peptide deformylase inhibitor and use thereof in antibacteria and anti-tumor” (priority 2016, dated 2020)", "assay_type_in_all_cases": "cell-based", "key": {"[1]": {"tested_on": "Escherichia coli (including ESBLs, non-ESBLs)", "experiment": "MIC, two-fold agar dilution (CLSI), clinical isolates", "summary_of_the_method": "(§1)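 Following the American Clinical and Laboratory Standards Institute procedure, agar two-fold dilution served to determine minimum inhibitory concentrations.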"}, "[2]": {"tested_on": "methicillin-sensitive Staphylococcus epidermidis (MSSE)", "experiment": "MIC, two-fold agar dilution (CLSI), clinical isolates", "summary_of_the_method": "as §1"}, "[3]": {"tested_on": "Enterococcus faecalis (EFA)", "experiment": "MIC, two-fold agar dilution (CLSI), clinical isolates", "summary_of_the_method": "as §1"}, "[4]": {"tested_on": "Enterococcus faecium (EFM)", "experiment": "MIC, two-fold agar dilution (CLSI), clinical isolates", "summary_of_the_method": "as §1"}, "[5]": {"tested_on": "methicillin-resistant Staphylococcus epidermidis (MRSE)", "experiment": "MIC, two-fold agar dilution (CLSI), clinical isolates", "summary_of_the_method": "as §1"}, "[6]": {"tested_on": "methicillin-resistant Staphylococcus aureus (MRSA)", "experiment": "MIC, two-fold agar dilution (CLSI), clinical isolates", "summary_of_the_method": "as §1"}, "[7]": {"tested_on": "methicillin-sensitive Staphylococcus aureus (MSSA)", "experiment": "MIC, two-fold agar dilution (CLSI), clinical isolates", "summary_of_the_method": "as §1"}, "[8]": {"tested_on": "Streptococcus pneoumoniae (SPN)", "experiment": "MIC, two-fold agar dilution (CLSI), clinical isolates", "summary_of_the_method": "as §1"}, "[9]": {"tested_on": "Moraxella catarrhalis (BCA)", "experiment": "MIC, two-fold agar dilution (CLSI), clinical isolates", "summary_of_the_method": "as §1"}, "[10]": {"tested_on": "HCT-116 colorectal cancer cell line", "experiment": "CCK-8 proliferation inhibition", "settings": "Homo sapiens, HCT-116, 72 h, concentration of 30 μM; 72 hours; CCK-8; read-out: HCT116 inhibition rate/%", "summary_of_the_method": "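Cells were plated overnight at 2000 cells/well, then compound in culture medium was added at a range of final concentrations. After 72 hours in a CO2 incubator, medium was replaced with 1:10 CCK-8 solution for the read-out.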"}}}
{"smiles": "CCCC[C@H](CC(=O)NO)C(=O)N1CC2(CC2)C[C@H]1C(=O)Nc1cnn(CCN(C)C)c1", "note": "[Example 52, (S)—N-(1-(2-(dimethylamino)ethyl)-1H-pyrazol-4-yl)-5-((R)-2-(2-(hydroxyamino)-2-oxoethyl)hexanoyl)-5-spiro[2.4]heptane-6-carboxamide]", "values": [{"measurement": "Anti-bacterial activity (MIC), strain ECO+ 15-1", "setting": "[1]; clinical isolate ECO+ 15-1", "result": "> 32", "unit": "µg/mL"}, {"measurement": "Anti-bacterial activity (MIC), strain ECO+ 15-2", "setting": "[1]; clinical isolate ECO+ 15-2", "result": "> 32", "unit": "µg/mL"}, {"measurement": "Anti-bacterial activity (MIC), strain ECO+ 15-3", "setting": "[1]; clinical isolate ECO+ 15-3", "result": "> 32", "unit": "µg/mL"}, {"measurement": "Anti-bacterial activity (MIC), strain ECO+ 15-4", "setting": "[1]; clinical isolate ECO+ 15-4", "result": "> 32", "unit": "µg/mL"}, {"measurement": "Anti-bacterial activity (MIC), strain ECO− 15-1", "setting": "[1]; clinical isolate ECO− 15-1", "result": "> 32", "unit": "µg/mL"}, {"measurement": "Anti-bacterial activity (MIC), strain ECO− 15-2", "setting": "[1]; clinical isolate ECO− 15-2", "result": "> 32", "unit": "µg/mL"}, {"measurement": "Anti-bacterial activity (MIC), strain ECO− 15-3", "setting": "[1]; clinical isolate ECO− 15-3", "result": "> 32", "unit": "µg/mL"}, {"measurement": "Anti-bacterial activity (MIC), strain ECO− 15-4", "setting": "[1]; clinical isolate ECO− 15-4", "result": "> 32", "unit": "µg/mL"}, {"measurement": "Anti-bacterial activity (MIC), strain MSSE 15-3", "setting": "[2]; clinical isolate MSSE 15-3", "result": "> 32", "unit": "µg/mL"}, {"measurement": "Anti-bacterial activity (MIC), strain MSSE 15-4", "setting": "[2]; clinical isolate MSSE 15-4", "result": "> 32", "unit": "µg/mL"}, {"measurement": "Anti-bacterial activity (MIC), strain MSSE 15-5", "setting": "[2]; clinical isolate MSSE 15-5", "result": "> 32", "unit": "µg/mL"}, {"measurement": "Anti-bacterial activity (MIC), strain MSSE 15-6", "setting": "[2]; clinical isolate MSSE 15-6", "result": "> 32", "unit": "µg/mL"}, {"measurement": "Anti-bacterial activity (MIC), strain EFA 15-1", "setting": "[3]; clinical isolate EFA 15-1", "result": "> 32", "unit": "µg/mL"}, {"measurement": "Anti-bacterial activity (MIC), strain EFA 15-2", "setting": "[3]; clinical isolate EFA 15-2", "result": "> 32", "unit": "µg/mL"}, {"measurement": "Anti-bacterial activity (MIC), strain EFA 15-3", "setting": "[3]; clinical isolate EFA 15-3", "result": "> 32", "unit": "µg/mL"}, {"measurement": "Anti-bacterial activity (MIC), strain EFA 15-4", "setting": "[3]; clinical isolate EFA 15-4", "result": "> 32", "unit": "µg/mL"}, {"measurement": "Anti-bacterial activity (MIC), strain EFA 15-5", "setting": "[3]; clinical isolate EFA 15-5", "result": "> 32", "unit": "µg/mL"}, {"measurement": "Anti-bacterial activity (MIC), strain EFA 15-6", "setting": "[3]; clinical isolate EFA 15-6", "result": "> 32", "unit": "µg/mL"}, {"measurement": "Anti-bacterial activity (MIC), strain EFA 15-9", "setting": "[3]; clinical isolate EFA 15-9", "result": "> 32", "unit": "µg/mL"}, {"measurement": "Anti-bacterial activity (MIC), strain EFM 15-1", "setting": "[4]; clinical isolate EFM 15-1", "result": "> 32", "unit": "µg/mL"}, {"measurement": "Anti-bacterial activity (MIC), strain EFM 15-2", "setting": "[4]; clinical isolate EFM 15-2", "result": "> 32", "unit": "µg/mL"}, {"measurement": "Anti-bacterial activity (MIC), strain EFM 15-3", "setting": "[4]; clinical isolate EFM 15-3", "result": "> 32", "unit": "µg/mL"}, {"measurement": "Anti-bacterial activity (MIC), strain EFM 15-4", "setting": "[4]; clinical isolate EFM 15-4", "result": "> 32", "unit": "µg/mL"}, {"measurement": "Anti-bacterial activity (MIC), strain EFM 15-5", "setting": "[4]; clinical isolate EFM 15-5", "result": 16, "unit": "µg/mL"}, {"measurement": "Anti-bacterial activity (MIC), strain EFM 15-6", "setting": "[4]; clinical isolate EFM 15-6", "result": 16, "unit": "µg/mL"}, {"measurement": "Anti-bacterial activity (MIC), strain MRSE 15-1", "setting": "[5]; clinical isolate MRSE 15-1", "result": "> 32", "unit": "µg/mL"}, {"measurement": "Anti-bacterial activity (MIC), strain MRSE 15-2", "setting": "[5]; clinical isolate MRSE 15-2", "result": "> 32", "unit": "µg/mL"}, {"measurement": "Anti-bacterial activity (MIC), strain MRSE 15-3", "setting": "[5]; clinical isolate MRSE 15-3", "result": "> 32", "unit": "µg/mL"}, {"measurement": "Anti-bacterial activity (MIC), strain MRSE 15-7", "setting": "[5]; clinical isolate MRSE 15-7", "result": "> 32", "unit": "µg/mL"}, {"measurement": "Anti-bacterial activity (MIC), strain MRSA 15-1", "setting": "[6]; clinical isolate MRSA 15-1", "result": "> 32", "unit": "µg/mL"}, {"measurement": "Anti-bacterial activity (MIC), strain MRSA 15-2", "setting": "[6]; clinical isolate MRSA 15-2", "result": "> 32", "unit": "µg/mL"}, {"measurement": "Anti-bacterial activity (MIC), strain MRSA 15-3", "setting": "[6]; clinical isolate MRSA 15-3", "result": "> 32", "unit": "µg/mL"}, {"measurement": "Anti-bacterial activity (MIC), strain MRSA 15-4", "setting": "[6]; clinical isolate MRSA 15-4", "result": "> 32", "unit": "µg/mL"}, {"measurement": "Anti-bacterial activity (MIC), strain MSSA 15-3", "setting": "[7]; clinical isolate MSSA 15-3", "result": "> 32", "unit": "µg/mL"}, {"measurement": "Anti-bacterial activity (MIC), strain MSSA 15-4", "setting": "[7]; clinical isolate MSSA 15-4", "result": "> 32", "unit": "µg/mL"}, {"measurement": "Anti-bacterial activity (MIC), strain MSSA 15-5", "setting": "[7]; clinical isolate MSSA 15-5", "result": "> 32", "unit": "µg/mL"}, {"measurement": "Anti-bacterial activity (MIC), strain MSSA 15-6", "setting": "[7]; clinical isolate MSSA 15-6", "result": "> 32", "unit": "µg/mL"}, {"measurement": "Anti-bacterial activity (MIC), strain SPN 16-2", "setting": "[8]; clinical isolate SPN 16-2", "result": 8, "unit": "µg/mL"}, {"measurement": "Anti-bacterial activity (MIC), strain SPN 16-4", "setting": "[8]; clinical isolate SPN 16-4", "result": 8, "unit": "µg/mL"}, {"measurement": "Anti-bacterial activity (MIC), strain BCA 14-1", "setting": "[9]; clinical isolate BCA 14-1", "result": "> 32", "unit": "µg/mL"}, {"measurement": "Anti-bacterial activity (MIC), strain BCA 14-4", "setting": "[9]; clinical isolate BCA 14-4", "result": "> 32", "unit": "µg/mL"}, {"measurement": "Anti-bacterial activity (MIC), strain BCA 14-5", "setting": "[9]; clinical isolate BCA 14-5", "result": "> 32", "unit": "µg/mL"}, {"measurement": "Anti-bacterial activity (MIC), strain BCA 14-6", "setting": "[9]; clinical isolate BCA 14-6", "result": "> 32", "unit": "µg/mL"}, {"measurement": "Anti-bacterial activity (MIC), strain BCA 14-7", "setting": "[9]; clinical isolate BCA 14-7", "result": "> 32", "unit": "µg/mL"}, {"measurement": "Anti-bacterial activity (MIC), strain BCA 14-8", "setting": "[9]; clinical isolate BCA 14-8", "result": "> 32", "unit": "µg/mL"}, {"measurement": "Anti-bacterial activity (MIC), strain BCA 14-10", "setting": "[9]; clinical isolate BCA 14-10", "result": "> 32", "unit": "µg/mL"}, {"measurement": "inhibition at 30 µM", "setting": "[10]", "result": -1, "unit": "%"}]}
